In experiment [1] the target is T1, EGFR TMLR (T790M/L858R), H1975 cell line (Homo sapiens, UniProt P00533, L858R/T790M).
T1 construct: H1975 cell line (CRL-5908; Lot BA70803) was obtained from American Type Culture Collection; host or cells: H1975
Briefly: HTRF Phospho EGFR TMLR Assay (Cellular). Format: cell-based. The note with it: H1975 cells, 16 hours compound incubation. As for the experimental part:
HTRF Phospho EGFR TMLR Assay (Cellular)
H1975 cell line (CRL-5908; Lot BA70803) was obtained from American Type Culture Collection (Manassas, Va., USA). Cells were maintained at 37° C., 5% CO2 in complete Media RPMI 1640 without phenol red containing 0.3 mg/ml glutamine, 100 IU/ml penicillin, and […] streptomycin (Gibco, 15140-122) supplemented with 10% fetal bovine serum (FBS, Gibco, 10091-148). Compounds were diluted into starving medium RPMI 1640 Media (Gibco, 11835-030) without phenol red containing 0.3 mg/ml glutamine, 100 IU/ml penicillin, and […] streptomycin (Gibco).
Cells were cultured for 24 h in a 384-well plate (Greiner Bio-One, Nr. 784-080; 5000 cells/well) using 8 μl of complete medium/well. Then 4 µl/well of the 3× compound solution, containing a factor 3 dilution series of the compound or DMSO in starving medium, were added to the cells (final DMSO 0.33%). After 16 hours at 37° C., 5% CO2, 95% rel. humidity cells were lysed by adding to the compound mix 4 µl/well of the supplemented lysis buffer (Cis-bio, Phospho-EGFR HTRF kit, 64EG1PEH), followed by incubation for 30 min at room temperature with shaking (400 rpm). Then 4 μl of a mixture of anti-Phospho-EGFR Cryptate and of anti-Phospho-EGFR-d2 antibody solutions prepared in the detection buffer was added. The plates were then incubated for 4 h at room temperature before reading the fluorescence emission at 620 and 665 nm using an Envision reader (Perkin Elmer).
(In general: In TR-FRET formats the signal depends on donor and acceptor labels being close together.)

Experiment [2] addresses T2, EGFR TMLRCS (T790M/L858R/C797S), BaF3-TMLRCS cell line (Homo sapiens, UniProt P00533, C797S/L858R/T790M).
T2 construct: host or cells: BaF3
The experiment is described as follows: HTRF Phospho EGFR TMLRCS Assay (Cellular). In kind it is cell-based. The note with it: BaF3-TMLRCS cells, 4 hours compound incubation. As for the experimental part:
HTRF Phospho EGFR TMLRCS Assay (Cellular)
BaF3-TMLRCS cell line were obtained from Crownbio (San Diego, Calif., USA). Cells were maintained at 37° C., 5% CO2 in RPMI ATCC (Gibco 31870)+2 mM Glutamine+0.5 μg/ml Puromycin supplemented with 10% fetal bovine serum (FBS) (Gibco).
Cells are transferred as above to Greiner Bio-One, Nr. 784-08 micro-titerplate at 20000 cells/well in 12.5 μl of growth medium/well after the plates had been pre-filled with 12.5 nl of DMSO solutions of the to be tested compounds (in dose response) or DMSO only. After spinning the plates at 300×g for 30 seconds the cells were incubated for 4 hours at 37 C, 5% CO2, 95% humidity. The cells were lysed by adding to the compound mix 4 µl/well of the supplemented lysis buffer (Cis-bio, Phospho-EGFR HTRF kit, 64EG1PEH), followed by incubation for 30 min at room temperature with shaking (400 rpm). The plates were then frozen and stored overnight at −80 C. On the next day and after thawing the plates, 4 μl of a mixture of anti-Phospho-EGFR Cryptate and of anti-Phospho-EGFR-d2 antibody solutions prepared in the supplied detection buffer was added to each well. The lidded plates were then incubated for 4 h at room temperature before reading the fluorescence emission at 616 and 665 nm using an Envision reader (Perkin Elmer). Data was analyzed in similar fashion as above using the normalized ratio of the 665 to 616 signals multiplied by 10000.

SMILES strings stand for the structures. Counter-ions that a name gives are not always drawn.

T1 sequence (P00533 25-1210 T790M/L858R): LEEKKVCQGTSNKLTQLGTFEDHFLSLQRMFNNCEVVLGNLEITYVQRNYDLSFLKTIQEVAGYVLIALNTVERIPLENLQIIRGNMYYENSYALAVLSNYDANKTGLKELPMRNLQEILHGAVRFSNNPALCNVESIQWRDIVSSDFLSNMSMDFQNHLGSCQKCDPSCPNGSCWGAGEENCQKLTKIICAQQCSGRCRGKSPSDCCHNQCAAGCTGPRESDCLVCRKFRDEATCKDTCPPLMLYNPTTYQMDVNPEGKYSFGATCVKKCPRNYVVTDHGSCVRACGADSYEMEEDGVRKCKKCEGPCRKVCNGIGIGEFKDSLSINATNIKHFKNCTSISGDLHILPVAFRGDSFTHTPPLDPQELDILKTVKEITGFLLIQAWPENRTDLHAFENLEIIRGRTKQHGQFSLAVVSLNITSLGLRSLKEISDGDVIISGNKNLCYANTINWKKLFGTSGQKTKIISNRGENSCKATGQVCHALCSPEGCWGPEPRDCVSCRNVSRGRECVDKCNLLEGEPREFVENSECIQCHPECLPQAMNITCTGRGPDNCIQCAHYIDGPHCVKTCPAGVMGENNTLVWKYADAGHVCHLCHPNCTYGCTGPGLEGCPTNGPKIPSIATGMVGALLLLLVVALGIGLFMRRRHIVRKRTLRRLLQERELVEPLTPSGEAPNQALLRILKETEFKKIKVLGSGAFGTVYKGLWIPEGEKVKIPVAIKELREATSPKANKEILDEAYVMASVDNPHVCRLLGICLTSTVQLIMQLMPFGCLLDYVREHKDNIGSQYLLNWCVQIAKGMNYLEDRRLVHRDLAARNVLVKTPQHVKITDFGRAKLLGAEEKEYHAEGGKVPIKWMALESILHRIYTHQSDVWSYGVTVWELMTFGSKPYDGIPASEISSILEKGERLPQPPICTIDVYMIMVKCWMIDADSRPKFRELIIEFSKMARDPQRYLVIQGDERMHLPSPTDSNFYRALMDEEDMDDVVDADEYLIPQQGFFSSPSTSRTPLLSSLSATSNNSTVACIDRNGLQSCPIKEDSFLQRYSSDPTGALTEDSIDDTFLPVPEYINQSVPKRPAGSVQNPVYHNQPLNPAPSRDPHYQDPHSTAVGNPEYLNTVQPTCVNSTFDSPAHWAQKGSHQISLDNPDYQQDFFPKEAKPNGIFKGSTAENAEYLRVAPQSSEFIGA
T2 sequence (P00533 25-1210 T790M/C797S/L858R): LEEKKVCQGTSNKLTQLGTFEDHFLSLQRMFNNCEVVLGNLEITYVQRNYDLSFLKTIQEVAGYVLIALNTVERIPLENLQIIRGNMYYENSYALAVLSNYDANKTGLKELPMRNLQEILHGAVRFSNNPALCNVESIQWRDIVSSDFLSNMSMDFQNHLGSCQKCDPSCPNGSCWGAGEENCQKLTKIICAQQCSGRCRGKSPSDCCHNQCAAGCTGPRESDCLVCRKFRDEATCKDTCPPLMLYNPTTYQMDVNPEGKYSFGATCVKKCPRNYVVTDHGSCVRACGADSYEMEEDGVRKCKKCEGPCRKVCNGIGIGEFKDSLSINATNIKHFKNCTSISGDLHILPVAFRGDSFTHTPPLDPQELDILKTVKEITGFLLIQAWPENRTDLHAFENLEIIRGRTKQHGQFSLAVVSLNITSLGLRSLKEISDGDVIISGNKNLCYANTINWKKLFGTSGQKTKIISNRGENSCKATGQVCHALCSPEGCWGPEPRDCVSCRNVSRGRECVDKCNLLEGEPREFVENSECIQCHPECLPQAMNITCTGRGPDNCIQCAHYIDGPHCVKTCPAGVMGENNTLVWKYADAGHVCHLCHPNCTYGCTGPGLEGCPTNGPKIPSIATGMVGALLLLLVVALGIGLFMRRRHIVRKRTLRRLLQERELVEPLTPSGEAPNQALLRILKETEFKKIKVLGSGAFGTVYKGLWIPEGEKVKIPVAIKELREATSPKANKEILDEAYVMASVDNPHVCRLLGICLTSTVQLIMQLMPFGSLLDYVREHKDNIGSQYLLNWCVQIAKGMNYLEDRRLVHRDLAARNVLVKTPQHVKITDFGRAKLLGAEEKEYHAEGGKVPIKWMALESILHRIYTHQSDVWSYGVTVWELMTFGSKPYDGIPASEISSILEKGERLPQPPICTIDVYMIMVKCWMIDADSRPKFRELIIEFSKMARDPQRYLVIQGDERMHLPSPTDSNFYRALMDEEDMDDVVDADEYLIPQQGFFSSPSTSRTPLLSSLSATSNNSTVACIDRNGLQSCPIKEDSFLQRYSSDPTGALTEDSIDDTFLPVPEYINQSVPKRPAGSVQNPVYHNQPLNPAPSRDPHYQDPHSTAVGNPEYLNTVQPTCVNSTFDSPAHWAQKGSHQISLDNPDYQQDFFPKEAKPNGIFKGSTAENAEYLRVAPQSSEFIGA

The compound `COc1c(-c2ccc3c(c2)CCC(=O)N3C)cc(Cl)c2cn(C(C(=O)Nc3nccs3)c3ncn4c3C[C@@H](F)C4)nc12` (mixture of isomers) [Example 20, 2-[4-Chloro-7-methoxy-6-(1-methyl-2-oxo-3,4-dihydroquinolin-6-yl)indazol-2-yl]-2-[rac-(6R)-6-fluoro-6,7-dihydro-5H-pyrrolo[1,2-c]imidazol-1-yl]-N-(1,3-thiazol-2-yl)acetamide] registered an IC50 in experiment [1] of 1 nM.

Turning to `CCN1CCN(c2ccc(-c3cc(Cl)c4cn(C(C(=O)Nc5nccs5)c5ncn6c5C[C@@H](F)C6)nc4c3OC)cc2)CC1` (mixture of isomers) [Example 21, 2-[4-Chloro-6-[4-(4-ethylpiperazin-1-yl)phenyl]-7-methoxyindazol-2-yl]-2-[rac-(6R)-6-fluoro-6,7-dihydro-5H-pyrrolo[1,2-c]imidazol-1-yl]-N-(1,3-thiazol-2-yl)acetamide], in experiment [1], the IC50 worked out at 3 nM.

In turn, `COc1c(-c2ccc(C3CCN(C4CC4)CC3)cc2)cc(Cl)c2cn(C(C(=O)Nc3nccs3)c3ncn4c3C[C@@H](F)C4)nc12` (mixture of isomers) [Example 22, 2-[4-Chloro-6-[4-(1-cyclopropylpiperidin-4-yl)phenyl]-7-methoxyindazol-2-yl]-2-[rac-(6R)-6-fluoro-6,7-dihydro-5H-pyrrolo[1,2-c]imidazol-1-yl]-N-(1,3-thiazol-2-yl)acetamide] came in with an IC50 in experiment [1] of 5 nM.

As for `O=C(Nc1nccs1)C(c1ncn2c1CCC2)n1cc2c(Cl)cc(-c3ccc(N4CCNCC4)cc3)cc2n1` (stereo not drawn) [Example 1, 2-(4-Chloro-6-(4-(piperazin-1-yl)phenyl)-2H-indazol-2-yl)-2-(6,7-dihydro-5H-pyrrolo[1,2-c]imidazol-1-yl)-N-(thiazol-2-yl)acetamide hydrochloride], the results for the IC50 in experiment [1] and in experiment [2] were 3 nM and 7 nM, respectively.

Take `CC(=O)N1CCN(c2ccc(-c3cc(Cl)c4cn(C(C(=O)Nc5nccs5)c5ncn6c5CCC6)nc4c3)cc2)CC1` (stereo not drawn) [Example 2, 2-(6-(4-(4-Acetylpiperazin-1-yl)phenyl)-4-chloro-2H-indazol-2-yl)-2-(6,7-dihydro-5H-pyrrolo[1,2-c]imidazol-1-yl)-N-(thiazol-2-yl)acetamide]: the values for the IC50 in experiment [1] and in experiment [2] were 0.4 nM and 5 nM, respectively.

With `O=C(Nc1nccs1)C(c1ncn2c1CCC2)n1cc2c(Cl)cc(-c3ccc(N4CCNCC4)c(Cl)c3)cc2n1` (stereo not drawn) [Example 3, 2-(4-Chloro-6-(3-chloro-4-(piperazin-1-yl)phenyl)-2H-indazol-2-yl)-2-(6,7-dihydro-5H-pyrrolo[1,2-c]imidazol-1-yl)-N-(thiazol-2-yl)acetamide hydrochloride], the IC50 in experiment [1] came out at 9 nM.

With `CCN1CCN(c2ccc(-c3cc(Cl)c4cn(C(C(=O)Nc5nccs5)c5ncn6c5CCC6)nc4c3)cc2Cl)CC1` (stereo not drawn) [Example 4, 2-(4-Chloro-6-(3-chloro-4-(4-ethylpiperazin-1-yl)phenyl)-2H-indazol-2-yl)-2-(6,7-dihydro-5H-pyrrolo[1,2-c]imidazol-1-yl)-N-(thiazol-2-yl)acetamide], the IC50 in experiment [1] came out at 11 nM; in experiment [2], 14 nM.

Turning to `O=C(Nc1nccs1)C(c1ncn2c1C[C@@H](F)C2)n1cc2c(F)cc(-c3ccc(N4CCNCC4)c(Cl)c3)cc2n1` (stereo partly drawn) [Example 6, 2-(6-(3-Chloro-4-(piperazin-1-yl)phenyl)-4-fluoro-2H-indazol-2-yl)-2-((R)-6-fluoro-6,7-dihydro-5H-pyrrolo[1,2-c]imidazol-1-yl)-N-(thiazol-2-yl)acetamide hydrochloride], in experiment [1], the IC50 turned out to be 3 nM.

Take `CC(=O)N1CCN(c2ccc(-c3cc(F)c4cn(C(C(=O)Nc5nccs5)c5ncn6c5C[C@@H](F)C6)nc4c3)cc2Cl)CC1` (stereo partly drawn) [Example 7, 2-(6-(4-(4-Acetylpiperazin-1-yl)-3-chlorophenyl)-4-fluoro-2H-indazol-2-yl)-2-((R)-6-fluoro-6,7-dihydro-5H-pyrrolo[1,2-c]imidazol-1-yl)-N-(thiazol-2-yl)acetamide]: the IC50 in experiment [1] came to 1 nM.

Turning to `CCN1CCN(c2ccc(-c3cc(F)c4cn(C(C(=O)Nc5nccs5)c5ncn6c5C[C@@H](F)C6)nc4c3)cc2Cl)CC1` (stereo partly drawn) [Example 8, 2-(6-(3-Chloro-4-(4-ethylpiperazin-1-yl)phenyl)-4-fluoro-2H-indazol-2-yl)-2-((R)-6-fluoro-6,7-dihydro-5H-pyrrolo[1,2-c]imidazol-1-yl)-N-(thiazol-2-yl)acetamide], in experiment [1], 5 nM corresponded to half-maximal inhibition (IC50).

Consider `O=C(Nc1nccs1)C(c1ncn2c1CCC2)n1cc2c(Cl)cc(-c3ccc(N4CCNCC4)cc3)c(Cl)c2n1` (stereo not drawn) [Example 9, 2-(4,7-Dichloro-6-(4-(piperazin-1-yl)phenyl)-2H-indazol-2-yl)-2-(6,7-dihydro-5H-pyrrolo[1,2-c]imidazol-1-yl)-N-(thiazol-2-yl)acetamide hydrochloride], for which, in experiment [1], half-maximal inhibition (IC50) was put at 2 nM.

For `CC(=O)N1CCN(c2ccc(-c3cc(Cl)c4cn(C(C(=O)Nc5nccs5)c5ncn6c5CCC6)nc4c3Cl)cc2)CC1` (stereo not drawn) [Example 12, 2-(6-(4-(4-Acetylpiperazin-1-yl)phenyl)-4,7-dichloro-2H-indazol-2-yl)-2-(6,7-dihydro-5H-pyrrolo[1,2-c]imidazol-1-yl)-N-(thiazol-2-yl)acetamide], the IC50 in experiment [1] is 1 nM.

Regarding `CCN1CCN(c2ccc(-c3cc(Cl)c4cn(C(C(=O)Nc5nccs5)c5ncn6c5CCC6)nc4c3Cl)cc2)CC1` (stereo not drawn) [Example 13, 2-(4,7-Dichloro-6-(4-(4-ethylpiperazin-1-yl)phenyl)-2H-indazol-2-yl)-2-(6,7-dihydro-5H-pyrrolo[1,2-c]imidazol-1-yl)-N-(thiazol-2-yl)acetamide], the IC50 in experiment [1] amounted to 1 nM; in experiment [2], 11 nM.

As for `O=C(Nc1nccs1)C(c1ncn2c1CCC2)n1cc2c(Cl)cc(-c3ccc(N4CCNCC4)cc3)c(F)c2n1` (stereo not drawn) [Example 15, 2-(4-Chloro-7-fluoro-6-(4-(piperazin-1-yl)phenyl)-2H-indazol-2-yl)-2-(6,7-dihydro-5H-pyrrolo[1,2-c]imidazol-1-yl)-N-(thiazol-2-yl)acetamide hydrochloride], in experiment [1], the IC50 was found to be 2 nM.

`CCN1CCN(c2ccc(-c3cc(Cl)c4cn(C(C(=O)Nc5nccs5)c5ncn6c5CCC6)nc4c3F)cc2)CC1` (stereo not drawn) [Example 16, 2-(4-Chloro-6-(4-(4-ethylpiperazin-1-yl)phenyl)-7-fluoro-2H-indazol-2-yl)-2-(6,7-dihydro-5H-pyrrolo[1,2-c]imidazol-1-yl)-N-(thiazol-2-yl)acetamide]: in experiment [1], half-maximal inhibition (IC50) required 2 nM.

Turning to `CN1C(=O)CCc2cc(-c3cc(Cl)c4cn(C(C(=O)Nc5nccs5)c5ncn6c5CCC6)nc4c3F)ccc21` (stereo not drawn) [Example 18, 2-(4-Chloro-7-fluoro-6-(1-methyl-2-oxo-1,2,3,4-tetrahydroquinolin-6-yl)-2H-indazol-2-yl)-2-(6,7-dihydro-5H-pyrrolo[1,2-c]imidazol-1-yl)-N-(thiazol-2-yl)acetamide], the IC50 in experiment [1] worked out at 1 nM.

Regarding `CC(C)n1ccc(-c2cc(Cl)c3cn(C(C(=O)Nc4nccs4)c4ncn5c4CCC5)nc3c2F)cc1=O` (stereo not drawn) [Example 23, 2-(4-Chloro-7-fluoro-6-(1-isopropyl-2-oxo-1,2-dihydropyridin-4-yl)-2H-indazol-2-yl)-2-(6,7-dihydro-5H-pyrrolo[1,2-c]imidazol-1-yl)-N-(thiazol-2-yl)acetamide], the midpoint of inhibition in experiment [1], the IC50, lay at 1 nM.

What is called IC50 is the concentration that inhibits the measured activity by half. Higher therefore signals lower potency.

The record behind these values is patent publication US20220135571A1, “THERAPEUTIC EGFR INHIBITORS” (Hoffmann-La Roche Inc., priority 2019, published 2022).
